Measurements published in patent US20190314377A1, “TREATMENT OF HEMATOLOGICAL MALIGNANCY WITH SMALL MOLECULE NF-KB INHIBITORS” (MEMORIAL SLOAN-KETTERING CANCER CENTER, priority 2016, published 2019).

Assays:
[1] = test system: luciferase-expressing MM.1S cells; test: MM.1S xenograft model of multiple myeloma in NSG mice; format: in vivo, mouse; conditions: IT-848 10 mg/kg i.p. M/W/F x 4 weeks; Bortezomib 0.5 mg/kg i.p. M/T x 4 weeks
Experimental: NSG mice received 2.5×10^6 luciferase-expressing MM.1S cells intravenously. After 10 days engraftment was confirmed and mice were assigned to four groups: empty vehicle i.p. M/W/F×4 weeks; Bortezomib 0.5 mg/kg i.p. M/T×4 weeks; IT-848 10 mg/kg i.p. M/W/F×4 weeks; Bortezomib M/T+IT-848 M/W/F×4 weeks. A. Tumor growth was analyzed by in vivo bioluminescence imaging. B. Mean and SEM of bioluminescence intensities are presented. N=7-10 The area under the curve (AUC) was used to summarize the bioluminescence intensity for each subject and a permutation test was performed to determine if there was a difference in the AUCs between groups. P values are as follows: Group 1 vs. 2: 0.008; Group 2 vs. 3: 0.032; Group 1 vs 3: <0.001; Group 2 vs 4: <0.001; Group 1 vs 4: <0.001; Group 3 vs 4: 0.029.
In tumor xenograft experiments the bioluminescent signal intensity (BLI) of tumor bearing mice was determined weekly. […] The cause of death (tumor versus toxicity) was determined based on the presence of hind leg paralysis. Death in the absence of hind leg paralysis was attributed to toxicity.
Efficacy studies of IT-848 combined with drugs that are currently used clinically to treat B cell malignancies were also performed. […] Moreover, IT-848 was efficacious in a xenograft model of MM (FIGS. 14, 15A and 15B) and enhanced the efficacy of bortezomib (FIGS. 15A and 15B). Immunodeficient mice received bioluminescent MM.1S cells intravenously and bone marrow engraftment was confirmed by in vivo bioluminescence imaging (BLI) after ten days. Mice were assigned to three treatment groups (IT-848 single agent, bortezomib single agent, combination of IT-848 and bortezomib) and a control group (empty vehicle IP). Onset of hind leg paralysis, which is the clinical endpoint of progressive disease in this model, was delayed in all three treatment groups (FIG. 9).

[2] = test system: mouse splenocytes; test: Toxicity to healthy cells (DAPI viability, MTS metabolic activity), mouse splenocytes; format: cell-based; conditions: 24 hours, 1, 3, 6 and 10 μM
Experimental: (§1) Mouse splenocytes and human peripheral blood mononuclear cells (PBMC) were incubated for 24 hours in the presence of empty vehicle or 1, 3, 6 and 10 μM of IT-848 or IT-878. Viability (percentage of DAPI-negative cells) was analyzed by flow cytometry and metabolic activity was analyzed by MTS assay. Mean and SEM of relative viability or metabolic activity are presented.
(§2) Human peripheral blood mononuclear cells (PBMC) were purified from donor blood according to accepted protocols. Mouse splenocytes were purified from mouse spleen using methods known to those skilled in the art.

[3] = test system: TMD8 B cell lymphoma cells; test: MTS cell proliferation assay, TMD8; format: cell-based, human; conditions: 2, 4 and 6 μM, 24 and 48 hours
Experimental: TMD8 human DLBCL cells were incubated for 48 hours in the presence of empty vehicle or 2, 4 and 6 μM of IT-848, IT-878, PS-1145, or ibrutinib, Cell proliferation was analyzed after 24 and 48 hours by MTS assay. Mean and SEM or relative cell growth are presented.
(§3) TDM8, Ly19, L363, SUDHL4, MM.1S or U266 cells were independently incubated for up to 48 hours in the presence of empty vehicle, IT-compound (2, 4, 6 μM), PS-1145 (2, 4 and 6 μM), or ibrutinib (2, 4 and 6 μM). Cell growth was measured indirectly after 24 and 48 hours by CellTiter 96 Aqueous Non-Radioactive Cell Proliferation Assay (Promega, Madison, Wis.) per manufacturer's instructions. Briefly, tetrazolium compound [-(4,5-dimethylthiazol-2-yl)-5-(3-carboxymethoxyphenyl)-2-(4-sulfophenyl)-2H-tetrazolium, inner salt; MTS] was added to the culture media and the conversion of MTS into formazon was measured by the amount of 490 nm absorbance. The number of viable cells correlates with absorbance at 490 nm. The results are shown in FIGS. 5A-D. Mean and SEM of relative cell growth are presented.

[4] = test system: NF-κB transcriptional activity; test: Jurkat/GFP/NF-κB transcriptional reporter assay; format: cell-based; conditions: 12 hours; 1, 3, 6 and 10 μM
Experimental: Jurkat/GFP/NF-κB transcriptional reporter cells were stimulated with TNF-α and incubated for 8 and 22 hours in the presence of empty vehicle or 1, 3 and 6 μM of IT-848 or IT-878. NF-κB transcriptional activity (GFP mean fluorescence intensity) was analyzed by flow cytometry. Mean and SEM of relative fluorescent intensities are presented.
(§4) Jurkat/GFP/NF-κB transcriptional reporter cells were stimulated with TNF-α, Jurkat/Luciferase/NFAT transcriptional reporter cells were stimulated with PMA/ionomycin, and HepG2/Luciferase/Nrf2-Antioxidant response element (ARE) transcriptional reporter cells were treated with tert-butylhydroquinone. The respective cell lines were incubated for 12 hours in the presence of empty vehicle or 1, 3, 6 and 10 μM of IT-848 or IT-878. NF-κB transcriptional activity was analyzed by flow cytometry, NFAT and Nrf2 transcriptional activities were analyzed by luminescence measurement. Mean and SEM of relative fluorescent or luminescent intensities are presented.
(§5) A NF-κB/Jurkat/GFP transcription reporter cell line was purchased from System Biosciences. NFAT/Jurkat/Luciferase transcriptional reporter cells were generated at Memorial Sloan-Kettering Cancer Center. HepG2/ARE/Luciferase Nrf2 transcriptional reporter cells were purchased from BPS biosciences.

[5] = Pharmacokinetics, plasma or whole blood levels by LC-MS/MS; format: in vivo; conditions: 5-10 mg/kg PO, IP or IV; in particular after IP or oral administration
Experimental: Plasma or whole blood samples were analyzed at several time points after intraperitoneal, intravenous or oral administration of 5-10 mg/kg of IT-848. Samples were analyzed by liquid chromatography-tandem mass spectrometry (LC-MS/MS). IT-848 is cleared slowly after systemic administration.

[6] = test system: human peripheral blood mononuclear cells (PBMC); test: Toxicity to healthy cells (DAPI viability, MTS metabolic activity), human PBMC; format: cell-based; conditions: 24 hours, 1, 3, 6 and 10 μM
Experimental: as §1, §2

[7] = test system: MM.1S and U266 cells; test: ROS levels by DCFDA assay in multiple myeloma cells; format: cell-based, human
Experimental: (§6) MM.1S cells, U266 cells or mouse splenocytes were cultured in the presence of empty vehicle or serial dilutions of IT-848. ROS levels were quantified after 4 hours and 24 hours by DCFDA assay.
(§7) Cells were treated in vitro with IT-848 (compound of Formula I), IT-878 (compound of Formula II) or vehicle solution. Reactive oxygen species (ROS) levels were analyzed by cell labelling with 2′, 7′-dichlorofluorescein diacetate (DCFDA) using a Cellular Reactive Oxygen Species Detection Assay Kit (Abcam, Cambridge, Mass.) ROS levels were analyzed by quantifying the fluorogenic marker DCFDA using flow cytometery (LSR II, BD Bioscience, San Jose, Calif.).

[8] = test system: interleukin 10 (IL-10); test: IL-10 secretion by ELISA in DLBCL and MM cell lines; format: cell-based, human; conditions: TMD8, HBL1 and U266 cells; 4 and 6 μM; 12 and 24 hours
Experimental: TMD8, HBL1 and U266 cells were incubated for 24 hours in the presence of empty vehicle or IT-848 (4 and 6 μM). IL-10 concentrations in the culture media were analyzed after 12 and 24 hours by ELISA. Mean and SEM of relative IL-10 levels (percentage of vehicle) are presented.

[9] = test system: mouse splenocytes; test: ROS levels by DCFDA assay in mouse splenocytes; format: cell-based
Experimental: as §6, §7

[10] = test system: HBL1 cells; test: MTS assay, combination with Bortezomib in HBL1 cells; format: cell-based, human; conditions: IT-848 4 μM + Bortezomib 0.02 μM; 24 and 48 hours
Experimental: HBL1 human DLBCL cells were incubated for 48 hours in the presence of empty vehicle, IT-848 (4 μM), Bortezomib (0.02 μM), or a combination of IT-848 and Bortezomib. Cell proliferation was analyzed after 24 and 48 hours by MTS assay. Mean and SEM of relative cell growth are presented.

[11] = test system: Nrf2 transcriptional activity; test: HepG2/Luciferase/Nrf2-ARE transcriptional reporter assay; format: cell-based; conditions: tert-butylhydroquinone treated; 12 hours; 1, 3, 6 and 10 μM
Experimental: as §4, §5

[12] = test system: SUDHL4 B cell lymphoma cells; test: MTS cell proliferation assay, SUDHL4; format: cell-based, human; conditions: 2, 4 and 6 μM, 24 and 48 hours
Experimental: SUDHL4 human DLBCL cells were incubated for 48 hours in the presence of empty vehicle or 2, 4 and 6 μM of IT-848, IT-878, PS-1145, or ibrutinib, Cell proliferation was analyzed after 24 and 48 hours by MTS assay. Mean and SEM or relative cell growth are presented.
as §3

[13] = test system: MM.1S multiple myeloma cells; test: MTS cell proliferation assay, MM.1S; format: cell-based, human; conditions: 2, 4 and 6 μM, 24 and 48 hours
Experimental: MM.1S human multiple myeloma cells were incubated for 48 hours in the presence of empty vehicle or 2, 4 and 6 μM of IT-848, IT-878, PS-1145, or ibrutinib, Cell proliferation was analyzed after 24 and 48 hours by MTS assay. Mean and SEM or relative cell growth are presented.
as §3

[14] = test system: NFAT transcriptional activity; test: Jurkat/Luciferase/NFAT transcriptional reporter assay; format: cell-based; conditions: PMA/ionomycin stimulated; 12 hours; 1, 3, 6 and 10 μM
Experimental: as §4, §5

[15] = test system: U266 multiple myeloma cells; test: MTS cell proliferation assay, U266; format: cell-based, human; conditions: 2, 4 and 6 μM, 24 and 48 hours
Experimental: U266 human multiple myeloma cells were incubated for 48 hours in the presence of empty vehicle or 2, 4 and 6 μM of IT-848, IT-878, PS-1145, or ibrutinib, Cell proliferation was analyzed after 24 and 48 hours by MTS assay. Mean and SEM or relative cell growth are presented.
as §3

[16] = test system: interleukin 6 (IL-6); test: IL-6 secretion by ELISA in DLBCL and MM cell lines; format: cell-based, human; conditions: TMD8, HBL1 and U266 cells; 4 and 6 μM; 12 and 24 hours
Experimental: TMD8, HBL1 and U266 cells were incubated for 24 hours in the presence of empty vehicle or IT-848 (4 and 6 μM). IL-6 concentrations in the culture media were analyzed after 12 and 24 hours by ELISA. Mean and SEM of relative IL-6 levels (percentage of vehicle) are presented.

[17] = test system: TMD8 cells; test: MTS assay, combination with Panobinostat in TMD8 cells; format: cell-based, human; conditions: IT-848 4 μM + Panobinostat 0.1 μM; 24 and 48 hours
Experimental: TMD8 and DLBCL cells were incubated for 48 hours in the presence of empty vehicle, IT-848 (4 μM), Panobinostat (0.1 μM), or a combination of IT-848 and Panobinaostat. Cell proliferation was analyzed after 24 and 48 hours by MTS assay. Mean and SEM of relative cell growth are presented.

CC(C)C[C@H](NC(=O)[C@H](Cc1ccccc1)NC(=O)c1cnccn1)B(O)O [bortezomib, reference compound]
onset of hind leg paralysis [1]: delayed
tumor growth by in vivo bioluminescence imaging (BLI) [1]: efficacious

CCCCCCOc1ccc2cc3c(=O)[nH]c(=O)nc-3oc2c1Cl [IT-848, 9-chloro-8-(hexyloxy)-2H-chromeno[2,3-d]pyrimidine-2,4(3H)-dione]
viability and metabolic activity of healthy cells [2]: acceptable level of compromise
cell growth (MTS) [3]: inhibits growth
specificity of inhibition of transcriptional activity [4]: specific to NF-kB
clearance [5]: slow
viability and metabolic activity of healthy cells [6]: acceptable level of compromise
ROS levels ([7]; after 24 hours): decreased levels
ROS levels ([7]; after four hours): unchanged or increased levels
secretion of IL-10 [8]: decreased
ROS levels ([9]; after 4 hours): did not alter levels
ROS levels ([9]; after 24 hours): small increase
effect on activity of Bortezomib (cell growth, MTS) [10]: enhances the activity
effect on Nrf2 transcriptional activity [11]: spared
cell growth (MTS) [12]: inhibits growth
cell growth (MTS) [13]: inhibits growth
effect on NFAT transcriptional activity [14]: spared
cell growth (MTS) [15]: inhibits growth
onset of hind leg paralysis [1]: delayed
tumor growth by in vivo bioluminescence imaging (BLI) [1]: efficacious
secretion of IL-6 [16]: decreased
effect on activity of Panobinostat (cell growth, MTS) [17]: enhances the activity

COCCCCOc1ccc2cc3c(=O)[nH]c(=O)nc-3oc2c1Cl [IT-878, 9-chloro-8-(4-methoxybutoxy)-2H-chromeno[2,3-d]pyrimidine-2,4(3H)-dione]
viability and metabolic activity of healthy cells [2]: acceptable level of compromise
specificity of inhibition of transcriptional activity [4]: specific to NF-kB
viability and metabolic activity of healthy cells [6]: acceptable level of compromise
effect on Nrf2 transcriptional activity [11]: spared
effect on NFAT transcriptional activity [14]: spared
